The source of these data is PubChem BioAssay (NCI).

Test systems include HOP-62 NSCLC; T-47D breast; HOP-92 NSCLC; TK-10 renal; HT29 colon; MOLT-4 leukemia; MALME-3M melanoma.
Holding throughout (experiment): NCI anticancer screen, dose series, 48 h

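Interpolation was linear, between the two tested concentrations surrounding the appropriate level; five concentrations were tested over 48 hours in 96-well plates. Here, GI50 denotes the concentration required for 50% inhibition of growth. TGI denotes the concentration required for complete inhibition of growth.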

Take `O=C(CSc1ncc(-c2ccccc2)n1-c1ccccc1)Nc1ccc(-c2nc3ccccc3s2)cc1`: the GI50 in the test with HOP-62 NSCLC is 5.68 µM; in the test with T-47D breast, 4.51 µM; with HOP-92 NSCLC it was 22.6 µM; in the test with TK-10 renal it was 34.4 µM. The TGI with HOP-62 NSCLC was above 100 µM; in the test on T-47D breast it was above 100 µM; in the test on HOP-92 NSCLC, 83.1 µM; in the test on TK-10 renal it was above 100 µM.

On to `COc1cc2c(cc1O)C1CC(CC3CCCCN31)OC(=O)/C=C\c1ccc(O)c-2c1` (configuration not stated), for which the TGI with T-47D breast is 45.7 µM; in the test with HOP-92 NSCLC, 97.9 µM; in the test on HT29 colon, 50.4 µM; in the test on TK-10 renal it was 95.8 µM; in the test with MOLT-4 leukemia it was 60.2 µM; in the test on MALME-3M melanoma, 40.2 µM.

In the case of `COc1cccc(/C=C\c2ccnc3ccccc23)c1`, the TGI with HOP-62 NSCLC, with T-47D breast, in the test with HOP-92 NSCLC, in the test on HT29 colon, in the test on TK-10 renal and in the test on MOLT-4 leukemia was above 10 µM in each case. For the same compound, the TGI with MALME-3M melanoma was above 10 µM.

As for `Cc1[nH]n(-c2cccc(Cl)c2)c(=O)c1/C=C1\C=c2ccccc2=CC1=O`, the GI50 is 31.4 µM with HOP-62 NSCLC; above 100 µM in the test with T-47D breast; above 100 µM with HT29 colon; 35 µM in the test with TK-10 renal; above 100 µM with MOLT-4 leukemia; 29.2 µM in the test with MALME-3M melanoma. Further, the TGI with HOP-62 NSCLC, in the test with T-47D breast, in the test on HT29 colon, with TK-10 renal, in the test on MOLT-4 leukemia and in the test with MALME-3M melanoma was above 100 µM each time.

In the case of `Fc1ccc(-c2nn3c(COc4ccc(Cl)cc4Cl)nnc3s2)cc1Oc1ccccc1`, the GI50 in the test with HOP-62 NSCLC was 11.5 µM; with T-47D breast, 11.6 µM; with HOP-92 NSCLC, 0.254 µM; in the test on HT29 colon, 15.9 µM; in the test on TK-10 renal, 12.2 µM; in the test on MOLT-4 leukemia, 7.08 µM. Besides, the GI50 in the test with MALME-3M melanoma was 17 µM. The TGI with HOP-62 NSCLC turned out to be 23.7 µM; with T-47D breast it was 25.7 µM; in the test with HOP-92 NSCLC, 7.93 µM; with HT29 colon, 34.8 µM; with TK-10 renal it was 25.2 µM; in the test on MOLT-4 leukemia it was 27.8 µM. In the test with MALME-3M melanoma, this compound displayed a TGI of 35.2 µM.

Turning to `COc1cc(/C=C/c2ccccn2)cc(OC)c1OC`, the TGI in the test on HOP-62 NSCLC, in the test with T-47D breast, in the test with HOP-92 NSCLC, with HT29 colon, in the test on TK-10 renal and in the test with MOLT-4 leukemia was above 10 µM in each case. In the test with MALME-3M melanoma, this compound yielded a TGI above 10 µM.

For the compound `Cc1cc(N)cc(C)c1-c1c(Br)cc(N)cc1Br`, the GI50 in the test with T-47D breast is 4.11 µM; with HOP-92 NSCLC it was 2.01 µM; in the test on HT29 colon, 2.82 µM; with TK-10 renal it was 5.67 µM; in the test on MALME-3M melanoma, 10.5 µM. Besides, the TGI in the test on T-47D breast turned out to be 20.3 µM; in the test on HOP-92 NSCLC, 9.32 µM; in the test with HT29 colon, 12 µM; with TK-10 renal, 37.7 µM; in the test on MALME-3M melanoma, 54.3 µM.

Regarding `COc1ccc2c(c1)C(=O)c1c-2c(N2CCN(C(=O)CCNCCNCCO)CC2)nc2ccccc12`, the GI50 in the test with T-47D breast was 13.4 µM; in the test with HOP-92 NSCLC, 3.77 µM; in the test with HT29 colon, 4.6 µM; in the test with TK-10 renal, 22.5 µM; in the test with MOLT-4 leukemia it was 5.05 µM; in the test with MALME-3M melanoma, 26.6 µM. Besides, the TGI was 29.8 µM in the test on T-47D breast; 18.2 µM with HOP-92 NSCLC; 16.7 µM with HT29 colon; 43.1 µM with TK-10 renal; 22.9 µM in the test on MOLT-4 leukemia; 58 µM in the test with MALME-3M melanoma.

On to `Cc1ccc(S(=O)(=O)CC2(Br)CCc3ccccc3C2=O)cc1` (configuration not stated), for which the TGI in the test with HOP-62 NSCLC is above 100 µM; in the test with HOP-92 NSCLC, above 100 µM; in the test with HT29 colon, 58.6 µM; in the test with TK-10 renal, 85.7 µM; in the test on MOLT-4 leukemia, above 100 µM; with MALME-3M melanoma, 68.6 µM.

In the case of `O=C1N=C(Nc2nc(-c3csc(NC4=NC(=O)/C(=C\c5ccc(Cl)cc5)S4)n3)cs2)S/C1=C/c1ccc(Cl)cc1`, the GI50 in the test with HOP-62 NSCLC was 3.29 µM; with T-47D breast it was 18.8 µM; in the test on HOP-92 NSCLC it was 8.61 µM; with HT29 colon, 23.6 µM; with TK-10 renal, 8.44 µM; in the test with MOLT-4 leukemia, 1.69 µM. The TGI with HOP-62 NSCLC was 18 µM; with T-47D breast, above 50 µM; in the test on HOP-92 NSCLC, 28.5 µM; with HT29 colon, above 50 µM; in the test with TK-10 renal it was 25.6 µM; in the test with MOLT-4 leukemia, above 50 µM.

On to `O=C(O)c1cn(C2CC2)c2cc(N3CCN(Cc4ccc5ccccc5c4O)CC3)c(F)cc2c1=O`, for which the GI50 with HOP-62 NSCLC is 2.45 µM; with T-47D breast, above 100 µM; in the test on HOP-92 NSCLC it was 2.15 µM; in the test with HT29 colon it was 4.35 µM. Besides, the TGI was 9.36 µM in the test on HOP-62 NSCLC, above 100 µM with T-47D breast, 5.44 µM in the test with HOP-92 NSCLC and above 100 µM with HT29 colon.
